Laboratory results from US10695436B2, “Non-cleavable polymer conjugated with alpha V beta 3 integrin thyroid antagonists” (NANOPHARMACEUTICALS, LLC, priority 2016, dated 2020).

Columns and labels:
[1] = system: orthotropic brain GBM tumor and subcutaneous GBM xenografts; test: Kinetics of Cy5 labeled conjugates in GBM tumors (IVIS imaging); format: in vivo
Experimental: Each group of animals was provided with orthotropic implants (GBM) and after tumor growth in the brain and subcutaneously implanted GBM Xenografts. Polymer conjugated MAT 210, TAT 230 or DAT 220 derivatives were injected subcutaneously with P-bi-TAT-Cy5 and other polymer conjugated TAT 230 or DAT 220 derivative-Cy5. IVIS imaging was performed immediately after injection and at 30 min, 1 h, 2 h, 3 h, 4 h to detect the fluorescence intensity at the orthotropic brain xenograft tumor site (brain) and subcutaneous xenografts tumors. […] The graphs depicted in FIGS. 34 and 35 describe the kinetics of the thyrointegrin antagonist derivatives' uptake into GBM tumors in the brain or subcutaneously implanted tumors. FIGS. 34-35 describe the effects of the polymer conjugated thyrointegrin antagonist derivatives containing MAT 210, DAT 220 and TAT 230 over time including bifunctional embodiments thereof.

[2] = system: U87-luc cells; test: GBM (U87-luc) xenografts, orthotopic and subcutaneous, 7 days treatment; format: in vivo, mouse; conditions: 1, 3 and 10 mg/kg, SC daily for 7 days
Experimental: Glioblastoma cells: U87-luc cells implanted orthotopically at 0.2×10^6 cell in 20 ul, in Matrigel and subcutaneously xenografted at 2×10^6 cells/implant with Matrigel in athymic female mice. Animals treated with polymers conjugated thyrointegrin antagonists, including derivatives of P-DAT 720, P-TAT 730 and bifunctional derivatives thereof for 7 days after 1 day post-implant and IVIS imaging of the brain tumor and subcutaneous tumor xenograft. […] FIGS. 38-40 depict the measurable dose-dependent effects of p-bi-TAT 1030 on brain GBM tumor and subcutaneous GBM tumor including the effect on luminescent signals of GBM in the brain, average tumor weight and bioluminescent intensity.

[3] = system: U87MG glioblastoma xenografts; test: U87MG-luc glioblastoma subcutaneous xenografts in the nude mouse; format: in vivo
Experimental: The xenograft model of glioblastoma is a standard model for study of GBM. In the current studies, athymic, immunodeficient NCr nude mice aged 5-6 weeks and weighing 18-20 g were used. Animals were provided with ad libitum access to water and food. Animals allowed to acclimatize to the facility for 5 days prior to study. Cultured U87MG-luc cells were harvested and implanted subcutaneously (s.c.) in each flank (5×10^6 cells in 100 uL volumes containing 50% Matrigel) Tumors were grown for 2 days (to an initial volume of 150-250 mm^3) before administration of the control, C-DAT 1320, C-TAT 1330, P-TAT 730, P-bi-DAT 1020, P-bi-TAT 1030. Immediately before initiation of treatment at 2 days after implantation, animals were divided into control and treatment groups containing similar distributions of tumor volumes (calipers measurement). Polymer conjugated P-DAT 720 and P-TAT 730 (3 mg or 10 mg/kg body weight) was administered daily s.c. to two groups of animals×21 days, and vehicle (PBS, pH 8.0/0.5% ethanol) was administered daily s.c. to one group of animals as control×21 days. There were 4 animals and 8 grafts/treatment group. The control group and one group of drug-treated animals humanely sacrificed at 21 days; the second group of drug-treated mice observed off therapy for an additional 22 days to detect any tumor re-growth. The second drug-treated group thus observed for a total of 43 days. Tumors harvested and weighed, then fixed, sliced and subjected to hematoxylin and eosin (H&E) staining. Microscopic slides accommodated the full diameter of the control tumors. […]
Histologic evaluation of paraffin-embedded tissue sections were stained (hematoxylin and eosin), and each section was coded. The area of the section measured with a stage micrometer, and the percentage of viable vs. necrotic tumor, manifested by loss of cell density, dissolution of the plasma membrane and loss of nuclear structure estimated visually. The number of mitoses and apoptotic cells per high power field was counted for 5 fields of viable tumor areas and averaged per tissue section. […]

[4] = Safety studies, C57BL6 mice, 14 days; format: in vivo
Experimental: Preclinical toxicology of a representative of the polymer conjugated thyrointegrin antagonist antiangiogenic agent of P-bi-TAT was pursued in 5-to-6 week-old C57BL6 mice, treated for 14 days with varying doses of P-bi-TAT. The treatment groups were control (vehicle), 1 mg/kg, 3 mg/kg, 10 mg/kg, 30 mg/kg, 100 mg/kg and 330 mg/kg P-bi-TAT, administered daily s.c. for 14 days. Each treatment group consisted of 5 male and 5 female animals, and animal weights were measured twice weekly. Mice terminated after 14 days and blood samples collected from the retro-orbital venous plexus. Blood samples centrifuged, and harvested plasma was stored at −80° C. until subjected to analyses described below.
Liver function was estimated by measurement in stored plasma of alanine transaminase (ALT) and aspartate transaminase (AST) activities (Colorimetric kit, Biovision, Inc., Milpitas, Calif.) the data for which is shown in FIG. 44. Cardiac troponin I (cTnI) levels in plasma were measured by an ELISA method (Life Diagnostics, West Chester, Pa.) as an index of myocardial damage (FIG. 44). It is a troponin found exclusively in the heart and not in other forms of muscle. Kidney function estimated by measurement of plasma creatinine concentration (Colorimetric kit, Biovision, Inc.) (FIG. 44). Satisfactory standard curves were constructed for each of the liver and kidney assays. […]

[5] = system: Matrigel growth factors implant-mediated angiogenesis; test: Mouse Matrigel-growth factors implant angiogenesis model (hemoglobin); format: in vivo; conditions: 10, 30, 100 μg/10 μl; day 14
Experimental: The mouse Matrigel model was performed in accordance with institutional guidelines for animal safety and welfare. Female mice C56/BL aged 5-6 weeks and body weights of 20 g were purchased from Taconic Farms (Hudson, N.Y., USA). The animals were maintained under specific pathogen-free conditions and housed 4 animals per cage, under controlled conditions of temperature (20-24° C.) and humidity (60-70%) and a 12 h light/dark cycle. The in vivo study carried out in the animal facility of the Veterans Affairs (VA) Medical Center, Albany, N.Y., and the experimental protocol approved by the VAIACUC. Mice were acclimated for 5 d prior to the start of experiments. […]
Polymer Conjugated DAT, TAT or MAT derivatives were tested at three different doses (10, 30, 100 μg/10 μl). […] At day 14-post plug implant, all animals were sacrificed and hemoglobin contents were quantitated using spectrophotometry. […]
Matrigel plug hemoglobin (Hb) content was indexed as a measure of new vascularity formation. […] A volume of 50 μl of supernatant were mixed with 50 μl of Drabkin's reagent and allowed to sit at room temperature for 15-30 min, after which 100 μl was placed in a 96-well plate and absorbance was measured at 540 nm with a Microplate Manager ELISA reader. The Hb concentration was expressed as mg/ml based on comparison with a standard curve.

[6] = system: pancreatic cancer SUIT 2 xenografts; test: Pancreatic cancer SUIT 2 xenografts, with or without radiation; format: in vivo, mouse; conditions: for Decrease in tumor size, combination with radiation / Decrease in cell viability, combination with radiation / Increase of necrosis, combination with radiation: vs. non-irradiated control; for Tumor weight reduction after 20 days / Increase in % cell necrosis in tissue sections / Percent reduction in tumor cell viability: no radiation
Experimental: Female NCr mice (Taconic Farms, Hudson, N.Y.) for in vivo studies obtained at 5-6 weeks of age (20 gm body weight) and maintained under specific pathogen-free conditions, and food and water provided ad libitum. The animals allowed to acclimate for 5 days. Cultured human SUIT 2 cells were harvested and implanted subcutaneously (s.c.) in each flank of the mice. Inocula comprising 100 μL, 50% Matrigel °, and containing 2×10^6 tumor cells was prepared. Tumors were grown for 7 days, at which time the animals were randomized into control and P-bi-TAT groups (6 animals/group, 12-carcinoma grafts/group). Starting on day 0, drug was administered at 3 or 10 mg of P-bi-TAT/kg body weight, daily for 20 days (to experimental day 19). Control animals received vehicle (PBS) daily. Animals were sacrificed on experimental day 20. Tumors were harvested and the weight of the tumors were measured. Tumors were formalin-fixed, imbedded in paraffin and sliced.
Effectiveness of radiation therapy, alone and in conjunction with P-bi-TAT was also assessed. The Radiation treatment was one Gy administered to right flank xenografts on days 10 and 17. Geometry of flank exposure excluded radiation exposure to the left flank of study animals, so that the left flank served as a control in the radiation studies.

## O,O′-Bis({4-[3,5-diiodo-4-(1-methylen-1,2,3-triazol-4-ylmethoxy)phenoxy]-3,5-diiodophenyl}acetic acid) polyethylene glycol [P-bi-TAT]
[1]; subcutaneous injection, IVIS up to 4 hours
  Cy5 signal in the brain over time: seen in the brain at 30 minutes and sustained for the 4 hours of monitoring
[1]; tumors removed after 4 hours
  Cy5 signal in brain GBM tumor versus subcutaneous GBM tumor xenografts: comparable
[2]
  Suppression of tumor and cell viability in brain and subcutaneous GBM tumor: dose dependent suppression of the tumor
[3]; 3 mg P-bi-TAT/kg s.c. daily for 21 days
  Reduction in tumor cell viability (histological score): 62%
[3]; 3 mg/kg and 10 mg/kg dosages, histologic evaluation
  Reductions in cell viability achieved by day 21: 60-70%
[3]; 10 mg P-bi-TAT/kg s.c. daily for 21 days
  Reduction in tumor cell viability (histological score): 72%
[4]; 1-330 mg/kg daily s.c. for 14 days
  Body weights: unaffected
[4]; male and female mice, 2 weeks, up to 100-fold the efficacious dose (3-10 mg/kg)
  Liver, heart or kidney toxicity (ALT, AST, cTnI, creatinine in plasma): no evidence of liver, heart or kidney toxicity
[5]
  Anti-angiogenic effect (Matrigel plug hemoglobin levels): dose dependent response on angiogenesis
[6]; 3 mg P-bi-TAT/kg plus one Gy radiation
  Decrease in tumor size, combination with radiation: 71%
[6]; 3 mg/kg daily
  Tumor weight reduction after 20 days: 55%
[6]; 3 mg/kg plus 1 Gy radiation
  Decrease in cell viability, combination with radiation: 54%
  Increase of necrosis, combination with radiation: 65%
[6]; 3 mg/kg
  Increase in % cell necrosis in tissue sections: not significant
  Percent reduction in tumor cell viability: insignificant
[6]; 10 mg P-bi-TAT/kg plus one Gy radiation
  Decrease in tumor size, combination with radiation: 77%
[6]; 10 mg/kg daily
  Tumor weight reduction after 20 days: 65%
[6]; 10 mg/kg plus 1 Gy radiation
  Decrease in cell viability, combination with radiation: 68%
  Increase of necrosis, combination with radiation: 70%
[6]; 10 mg/kg
  Increase in % cell necrosis in tissue sections: more than a doubling
  Percent reduction in tumor cell viability: 43%
